Reference: publication PMC5418449, “Characterisation of CCT271850, a selective, oral and potent MPS1 inhibitor, used to directly measure in vivo MPS1 inhibition vs therapeutic efficacy” (British Journal of Cancer, 2017)
pIC50: −log10 of the molar value.

Assays:
Parameters in all cases: MTT antiproliferation assay, absorbance at 570 nm, human cancer cell line panel
Conditions in all cases: 3-day MTT; inhibitor; read-out: Table S1. IC50 of CCT271850 determined by MTT and clonogenic assays (CA). / All cell lines were tested at least 2 times. / 3-day MTT
Det562 = system: Det562
Procedure: (§1) Cell lines were obtained from the American Type Culture Collection and grown in their recommended culture medium, supplemented with 10% FBS at 37 °C in 5% CO2. In-house authentication of cell lines by SNP profiling was carried out and cultured cells were passaged for less than 6 months before replacement from early-passage frozen stocks. Cells were regularly screened for Mycoplasma, using a PCR-based assay (VenorGem; Minerva Biolabs, Berlin, Germany). Transfections were carried out at ∼80% confluency with the plasmids indicated, using Lipofectamine LTX (15338030, Life Technologies, Carlsbad, CA, USA) according to the manufacturer's instructions. Cell proliferation assays were carried out by colorimetric MTT method (Sigma, St Louis, MO, USA) as described elsewhere ([Mosmann, 1983]). Briefly, cells were plated in 96-well plates at 2000–5000 cells per well (depending on the cell line) followed by treatment with two-fold dilutions of 0–25 μM drug for 72 h. Absorbance was measured at 570 nm with the Wallac VICTOR2 1420 Multilabel Counter (PerkinElmer, Waltham, MA, USA). To evaluate CCT271850 antiproliferation effects in a large panel of human cancer cell lines, 91 cell lines were treated for 72 h and 14 days at different compound concentrations in growth inhibition assays. The growth inhibition values as measured by IC50 are summarised in Table 2 and Supplementary Table S1. […] Cell lines from colon and head and neck cancers were among the most sensitive.

SW626 = system: SW626
Procedure: as §1

Lon-HN5 = system: Lon-HN5
Procedure: as §1

CaoV3 = system: CaoV3
Procedure: as §1

011A = system: 011A
Procedure: as §1

PATU-8988T = system: PATU-8988T
Procedure: as §1

TYK-Nu = system: TYK-Nu
Procedure: as §1

EF027 = system: EF027
Procedure: as §1

HN3 = system: HN3
Procedure: as §1

EF021 = system: EF021
Procedure: as §1

PJ41 = system: PJ41
Procedure: as §1

Miapaca-2 = system: Miapaca-2
Procedure: as §1

OVCAR4 = system: OVCAR4
Procedure: as §1

CAL27 = system: CAL27
Procedure: as §1

OAW28 = system: OAW28
Procedure: as §1

BxPC-3 = system: BxPC-3
Procedure: as §1

Suit-2 = system: Suit-2
Procedure: as §1

005B = system: 005B
Procedure: as §1

Hs766T = system: Hs766T
Procedure: as §1

HN6 = system: HN6
Procedure: as §1

KGN = system: KGN
Procedure: as §1

OVCAR5 = system: OVCAR5
Procedure: as §1

Capan-2 = system: Capan-2
Procedure: as §1

PT45 = system: PT45
Procedure: as §1

PJ34 = system: PJ34
Procedure: as §1

TOV21G = system: TOV21G
Procedure: as §1

OVCAR8 = system: OVCAR8
Procedure: as §1

COc1cc(-c2cnn(C)c2)ccc1Nc1ncc2ccnc(N[C@@H](C)C(C)(C)C)c2n1 [34h, CCT271850]
pIC50 (Det562): 5.88 | pIC50 (SW626): 5.38 | pIC50 (Lon-HN5): 6.49 | pIC50 (CaoV3): 6.44 | pIC50 (011A): 5.79 | pIC50 (PATU-8988T): 6.18 | pIC50 (TYK-Nu): 6.00 | pIC50 (EF027): 6.10 | pIC50 (HN3): 6.07 | pIC50 (EF021): 6.12 | pIC50 (PJ41): 6.28 | pIC50 (Miapaca-2): 6.61 | pIC50 (OVCAR4): 5.31 | pIC50 (CAL27): 6.64 | pIC50 (OAW28): 5.99 | pIC50 (BxPC-3): 6.28 | pIC50 (Suit-2): 6.36 | pIC50 (005B): 6.36 | pIC50 (Hs766T): 5.72 | pIC50 (HN6): 6.48 | pIC50 (KGN): 5.51 | pIC50 (OVCAR5): 6.14 | pIC50 (Capan-2): 5.81 | pIC50 (PT45): 6.02 | pIC50 (PJ34): 5.95 | pIC50 (TOV21G): 6.12 | pIC50 (OVCAR8): 5.91
